Where two headings read alike, the source gives them in different places.
Assays:
[1] = Broad-spectrum taste masking test on decoctions of extremely bitter Chinese herbal medicine slices; type: in vivo, healthy volunteers; set-up: key: reduction in bitterness degrees on a 5-degree graduation scale; details: 0.1% taste masking agent in 40% ethanol
Experimental: According to the standard of decocting 100 ml of liquid from 10 g of dry Chinese herbal medicine slices (decoction method: use a stainless steel container, and keep for 20 minutes after boiling), from 300 commonly used Chinese herbal medicine slices, combined with the Chinese Pharmacopoeia, more than 20 Chinese herbal medicines with bitter or extremely bitter properties written in the pharmacopoeia were selected, including Bletilla striata, Cortex qin, Stephania tetrandra, Apricot kernel, Belamcanda chinensis, Angelica dahurica, Lotus seed heart, Toosendan fruit, Andrographis paniculata, Sophora flavescens, Coptis chinensis, Gentiana scabra, Forsythia suspensa, Sophora japonica, Phellodendron amurense, Scutellaria baicalensis, Platycodon grandiflorum, Notopterygium wilfordii, Saposhnikovia divaricata, Perilla frutescens, Zanthoxylum bungeana, Osmanthus fragrans, Sophora flavescens, and Chrysanthemum officinale, totally 24 kinds of Chinese herbal medicines.
Finally, through the 5-degree graduation method, 2 species with a bitterness higher than 3.5 (moderate bitterness) and 7 species with a bitterness higher than 5 degrees (highly bitter, extremely bitter, accompanied by nausea) were screened out, a total of 9 species (Angelica pubescens, Lotus Seed Heart, Toosendan, Andrographis paniculata, Sophora flavescens, Coptis chinensis, Gentiana scabra, Forsythia suspensa, Sophora japonica) are selected as bitterness representatives to participate in the bitterness masking experiment. (Note: The bitterness of Coptis chinensis slices can reach 5.2 after 20 minutes of water decoction. The reference standard solution is 90-degree water brewing Coptis chinensis powder, it is automatically cooled to obtain a solution with a bitter taste of 4.0. Because Coptis chinensis has been used as a standard bitter liquid, it is no longer used).
The experimental method is the same as the previous part.

[2] = Oral spray bitterness masking taste test by volunteers with Coptis chinensis standard bitter solution; type: in vivo, healthy volunteers; set-up: key to bitterness value after drug: bitterness value 0.5–5.5; 1 = none, 5 = unbearable; key to Reduction of bitterness: drop in bitterness value (0.5–5.5 scale) from initial; details: for Duration >: retention time until bitterness rises; for inhibition in vivo at 0.2 %: Homo sapiens, read-out: Reduction range; for bitterness value after drug: initial bitterness 4.0, 16 cases
Experimental: Purpose of the experiment: it is to screen out compounds that take effect within 5 seconds, last for 30-120 seconds, and it is expected, by using such kind of compounds, the taste of the drug cannot be felt during the duration (30-120 seconds) when taking the drug.
Principle of the experiment: simulate the process of taking medicine and using the taste masking agents, first spray about 0.5 ml of oral spray on the throat (3 times), and after it takes effect quickly, taste 10 ml of bitter standard solution to screen drugs that can be used in advance and can mask the bitter taste.
• 1: Volunteer screening. The research team strictly screened the recruited volunteers and finally selected healthy volunteers as subjects. They signed informed consent forms before the experiment; • 2: Standard bitterness sample preparation. The bitterness of the samples was divided into five levels, and each level was assigned a certain bitterness value range; • 3: The sensory standard was corrected by the oral taste evaluation method, that is, the sensory standard was corrected by comparing the taste evaluation of the volunteers with the established bitterness value of the reference sample group. Specific steps: when the volunteers are doing the oral tasting test, the reference solutions of various concentrations are placed in the tasting cups, and the volunteers hold one of the solutions in their mouths, time it, and rinse their mouths by using the solution so that the bitter taste perception area at the root and sides of the tongue can fully feel the bitter taste of the drug. […] Then dilute all the selected taste masking drugs, prepare the solution, take 10 ml and put it into the spray bottle, spray it into the mouth 3 times, stay for 5 seconds, drink 10 ml of standard bitterness solution, feel and record the bitterness value, keep the standard bitterness solution in the mouth until the bitterness rises, and record the retention time. • 5: Quality control. […] Since the experimental objects are biological samples and there are individual differences between different subjects, there may be individual outliers in the experimental test data. The Grubbs test method was used to exclude outliers in the data, and then the experimental data were plotted in tables and curves for data analysis.
It is necessary to process the experimental data. Specifically, the Grubbs test method was used to perform a circular test and elimination of outliers on the data, and a bilateral test was used to eliminate outliers in the oral test. Considering the characteristics of biological samples, the detection level was selected as 0.1 and the elimination level was selected as 0.05 in this experiment.
The experimental medicinal material processing method mentioned in the above technical scheme is as follows: Preparation of bitter standard solution, use 10 g of Coptis chinensis powder, add 100 ml of pure water above 90 degrees, stir, let stand for 20 minutes, take the supernatant for use, determine the standard bitterness of 4.0 degrees by oral tasting, dilute 5 times, determine the standard bitterness of 2.0 degrees, dilute 2.0 degrees again 5 times, determine the standard bitterness of 0.5 degrees. Compare with the bitterness scoring table, (level 1 means “no bitterness or almost no bitterness”, the bitterness value is 0.5˜1.5; level 2 means “slightly bitter”, the bitterness value is 1.5˜2.5; level 3 means “bitter but acceptable”, the bitterness value is 2.5˜3.5; level 4 means “very bitter, but still tolerable”, the bitterness value is 3.5˜4.5; level 5 means “unbearable bitterness”, the bitterness value is 4.5˜5.5). Adjust the judgment and cognition of bitterness.
The standard bitterness solution used in this experiment to verify the experimental effect is a 4.0 degree bitterness solution of Coptis chinensis prepared according to the above method.

[3] = Andrographis paniculata, original bitterness 5
[4] = Forsythia suspensa, original bitterness 3
[5] = Gentiana, original bitterness 5
[6] = Lotus seed heart, original bitterness 5
[7] = Sophora flavescens, original bitterness 5
[8] = Toulianzi, original bitterness 5
[9] = 0.2% solution in 60% ethanol as oral spray
[10] = 0.2% solution in 60% ethanol as oral spray, relative to original bitterness 4.0
[11] = concentration 0.001% in 60% ethanol
[12] = concentration 0.005% in 60% ethanol
[13] = concentration 0.02% in 60% ethanol
[14] = concentration 0.10% in 60% ethanol
[15] = concentration 0.50% in 60% ethanol

Row | Structure (SMILES) | Bitterness reduction value [1, 3] | Bitterness reduction value [1, 4] | Bitterness reduction value [1, 5] | Bitterness reduction value [1, 6] | Bitterness reduction value ([1]; Puhuo, original bitterness 5) | Bitterness reduction value [1, 7] | Bitterness reduction value [1, 8] | Duration > [2, 9] [s] | inhibition in vivo at 0.2 % [2, 10] [%] | bitterness value after drug [2, 11] | bitterness value after drug [2, 12] | bitterness value after drug [2, 13] | bitterness value after drug [2, 14] | bitterness value after drug [2, 15] | Reduction of bitterness ([2]; 0.2% solution in 60% ethanol as oral spray, original bitterness average 4.0, average of 31 cases) | Reduction range [2, 10] [%] | inhibition in vivo at 0.2 % ([2]; po) [%]
1 | C=CC(C)(O)CCC=C(C)C (centres unmarked) [Linalool, linalool] | 0.8 | 2 | 1.2 | 1.6 | 2.5 | 0.5 | 1.1 | > 30 | 52.5 | 3.5 | 2.5 | 2.1 | 1.9 | 1.9 |  |  | 
2 | CC(C)[C@@H]1CC[C@@H](C)C[C@H]1OC(=O)CCC(=O)O [Menthyl succinate] |  |  |  |  |  |  |  | > 10 |  | 3.2 | 2.8 | 2.6 | 2.4 | 2.1 | 1.6 | 40.00 | 
3 | O=CC=Cc1ccccc1 [Cinnamaldehyde, 3-phenyl-2-propenal] | 4 | 1.7 | 4.2 | 2.3 | 4.2 | 2.3 | 3.5 | > 50 | 72.5 | 3.5 | 2.6 | 1.5 | 1.1 | 1.2 |  |  | 
4 | C=CCc1ccc(OC(C)=O)c(OC)c1 [Eugenol acetate] |  |  |  |  |  |  |  | > 60 | 60 | 3.8 | 3.2 | 2.3 | 1.6 | 1.4 |  |  | 
5 | COc1ccc(CCN(C)CCCC(C#N)(c2ccc(OC)c(OC)c2)C(C)C)cc1OC (centres unmarked) [Verapamil, 5-((3,4-dimethoxyphenylethyl)methylamino)-2-(3,4-dimethoxyphenyl)-2-isopropylvaleronitrile, reference compound] |  |  |  |  |  |  |  |  |  |  |  |  |  |  |  |  | 0
6 | CC(C)=CCCC(C)=CC=O [Citral, citral] | 1.5 | 2.5 | 3.7 | 3.5 | 3.75 | 1.7 | 1.5 | > 30 | 57.5 | 3.7 | 2.8 | 2.1 | 1.7 | 1.9 |  |  | 
7 | CCCCC[C@H](O)CC(=O)CCc1ccc(O)c(OC)c1 [Gingerol, 6-gingerol] |  |  |  |  |  |  |  | > 20 | 55 | 4 | 2.4 | 2.1 | 1.8 | 1.8 |  |  | 
8 | COc1cc(C(=O)O)ccc1O [Vanillic acid, 3-methoxy-4-hydroxybenzoic acid] |  |  |  |  |  |  |  | > 50 | 27.5 |  |  |  |  |  |  |  | 
9 | CC1CCC(C(C)C)C(=O)C1 (centres unmarked) [Menthone, 5-methyl-2-isopropylcyclohexanone] |  |  |  |  |  |  |  | > 30 | 70 | 2.5 | 2.1 | 1.4 | 1.2 | 1.1 |  |  | 
